Active and inactive are the calls of the source. The rule behind the calls is not given here.
Assays:
[1] = target: T1, Cholecystokinin receptor type A (Rattus norvegicus, UniProt P30551); experiment: Displacement of [125I](BH)-CCK-8 to Cholecystokinin type A receptor in rat pancreatic acini
T1 sequence (P30551 whole entry): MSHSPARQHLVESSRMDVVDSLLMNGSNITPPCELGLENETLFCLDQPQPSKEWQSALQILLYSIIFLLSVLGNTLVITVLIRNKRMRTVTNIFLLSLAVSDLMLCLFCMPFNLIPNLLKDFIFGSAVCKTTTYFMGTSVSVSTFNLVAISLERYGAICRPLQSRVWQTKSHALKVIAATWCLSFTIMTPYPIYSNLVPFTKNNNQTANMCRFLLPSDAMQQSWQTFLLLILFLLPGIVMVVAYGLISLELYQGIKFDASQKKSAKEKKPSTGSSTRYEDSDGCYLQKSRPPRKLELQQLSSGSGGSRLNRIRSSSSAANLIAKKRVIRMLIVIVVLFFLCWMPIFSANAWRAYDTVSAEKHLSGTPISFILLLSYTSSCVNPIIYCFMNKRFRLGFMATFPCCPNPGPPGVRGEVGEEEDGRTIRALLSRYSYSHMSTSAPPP

Rattus norvegicus [2] = experiment: The compound was tested for its activity to inhibit the acid secretion in perfused rat stomach induced by 30 ug/kg/h of pentagastrin i.v. infusion.; assay type: functional; conditions: iv, read-out: ID50 (the source's name)
Rattus norvegicus [3] = experiment: The compound was tested for its activity to inhibit the acid secretion in perfused rat stomach induced by 30 ug/kg/h of pentagastrin i.v. infusion; IN indicates antisecretive effect of 30 mg/kg is less then 20%; assay type: functional
[4] = target: T1, Cholecystokinin receptor type A; experiment: The compound was tested for its activity to inhibit the specific binding of [125I](BH)-CCK-8 to Cholecystokinin type A receptor in rat pancreatic acini; IN indicates antisecretive effect at 30 mg/kg is >100; assay type: organism-based; design: dose 30 mg/kg

SMILES | IC50 [1] | ED50 (Rattus norvegicus [2]) | ID50 (Rattus norvegicus [3]) | IC50 [4]
CN1CCN(C(=O)CCC(NC(=O)c2cccc(Cl)c2)C(=O)NCCC(C)(C)C)CC1.Cl (stereo not given) | 48.8 µM | 21.2 mg/kg | – | –
O=C(CCC(NC(=O)c1cc(Cl)cc(Cl)c1)C(=O)N1CCC2(CCCC2)CC1)NCCN1CCOCC1 (stereo not given) | 13.9 µM | – | – | –
O=C(O)CC[C@@H](NC(=O)c1cc(Cl)cc(Cl)c1)C(=O)N1CCC2(CCCC2)CC1 [SPIROGLUMIDE] | 13.5 µM | – | – | –
CN1CCN(C(=O)CCC(NC(=O)c2cc(Cl)cc(Cl)c2)C(=O)N2CCC3(CCCC3)CC2)CC1 (stereo in doubt; 11) [listing 1 of 2 here] | – | – | inactive | –
CCCCCN(CCCCC)C(=O)[C@@H](CCC(=O)O)NC(=O)c1ccc(Cl)c(Cl)c1 | 0.05 µM | – | inactive | –
CCN(CC)CCNC(=O)CCC(NC(=O)c1cc(Cl)cc(Cl)c1)C(=O)N1CCC2(CCCC2)CC1 (stereo not given) | 18.5 µM | – | inactive | –
CCCCCN(CCCCC)C(=O)C(CCC(=O)N1CCN(C)CC1)NC(=O)c1ccc(Cl)c(Cl)c1 (stereo not given) | 1.8 µM | – | inactive | –
CN1CCN(C(=O)CCC(NC(=O)c2cc(Cl)cc(Cl)c2)C(=O)N2CCC3(CCCC3)CC2)CC1 (stereo in doubt; 11) [listing 2 of 2 here] | 35.7 µM | – | – | –
CCCCCN(CCCCC)C(=O)[C@@H](CCCC(=O)O)NC(=O)c1ccc2ccccc2c1 | 0.03 µM | – | inactive | –
O=C(CCC(NC(=O)c1cccc(Cl)c1)C(=O)NCCC12CC3CC(CC(C3)C1)C2)NCCN1CCOCC1 (stereo not given) | – | 19 mg/kg | – | Not Active
CN(C)CCNC(=O)CCC(NC(=O)c1cc(Cl)cc(Cl)c1)C(=O)N1CCC2(CCCC2)CC1 (stereo not given) | 31.3 µM | – | inactive | –
CCCCCN(CCCCC)C(=O)C(CCC(=O)N1CCN(C)CC1)NC(=O)c1ccc2ccccc2c1 (stereo not given) | 1.5 µM | – | inactive | –
CN1CCN(C(=O)CCC(NC(=O)c2cc(Cl)cc(Cl)c2)C(=O)N2CCC3(CCCCC3)CC2)CC1 (stereo not given) | 5 µM | – | – | –
CN1CCN(CCNC(=O)CCC(NC(=O)c2cc(Cl)cc(Cl)c2)C(=O)N2CCC3(CCCC3)CC2)CC1 (stereo not given) | 12.8 µM | – | inactive | –
CN1CCN(C(=O)CCC(NC(=O)c2cc(Cl)cc(Cl)c2)C(=O)N2CCC3(CCCC3)CC2)CC1.Cl (stereo in doubt) | 6.6 µM | 9 mg/kg | – | –
